Experimental findings from PMC5318439, “The Novel Toll-Like Receptor 2 Agonist SUP3 Enhances Antigen Presentation and T Cell Activation by Dendritic Cells” (Frontiers in Immunology, 2017) are described below.

Where a SMILES comes first, the peptide text is derived from it. The star is where a group is joined. X1 = CCCCCCCCCCCCCCNC(=O)OC[C@H](C*)OC(=O)NCCCCCCCCCCCCCC; Palmitoyl = CCCCCCCCCCCCCCCC(=O)*

In assay [1] the test system is CD8^+ cDCs. In words: Cytokine production by purified CD8+ cDCs (ELISA). The class given is cell-based, mice. As to conditions: 200 nM, GM-CSF 20 ng/mL, 24 and 48 h. On the procedure:
Splenic DCs (5 × 10^5 cells/mL) were stimulated by Pam3 (200 nM), SUP3 (200 nM), or CpG ODN 1668 (20 nM; Adipogen IAX-200-001) in the GM-CSF (20 ng/mL) supplemented medium for indicated periods. Cell culture supernatants were harvested at indicated time points and stored at −40°C. RAW 264.7 cells and GMDCs were stimulated by lipopolysaccharide (LPS) (20 ng/mL; Adipogen IAX-100-013), Pam3, or SUP3 (both at 200 nM) for 24 h. For in vivo administration, Pam3 (2 nmol per mouse), SUP3 (2 nmol per mouse), or LPS (1 µg per mouse) were intravenously (i.v.) injected via tail veins. Serum was obtained through tail vein bleeding and centrifuged after coagulation and stored at −40°C. Cytokines (IL-6, eBioscience 88-7064; TNFα, eBioscience 88-7324; IL-12p40, BioLegend 431604), chemokine (MIP1α, R&D Systems DY450-05), and total IgM (eBioscience, 88-50470) were quantified by ELISA kits following the instructions of manufacturers.
Figure 4 SUP3 stimulated maturation of CD8^+ conventional dendritic cells (cDCs). […] The surface expression of costimulatory and major histocompatibility complex (MHC) molecules were then analyzed by flow cytometry. […] Splenic CD8^+ cDCs were enriched, and surface expression of CD40 and CD86 was analyzed by flow cytometry. […] Supernatants were harvested 24 and 48 h post-stimulation, and cytokines were measured by ELISA. […]
(In an ELISA, binding on a coated surface is turned into a signal by an enzyme label.)

Assay [2] concerns CD8^+ cDCs. Kind of assay: Antigen cross-presentation by splenic CD8+ cDCs to OT-I CD8+ T cells in vitro. Format: cell-based, mice. To be noted: 200 nM; SUP3 versus Pam3. On the procedure:
Antigen presentation assays were performed as previously described ([38]). Briefly, ovalbumin (OVA) (10 µg/mL; Sigma A7641) pulsed cDCs were stimulated with or without TLR agonists for 4 h. OT-I CD8^+ T cells and OT-II CD4^+ T cells were purified and then labeled by carboxyfluorescein diacetate succinimidyl ester (CFSE) (1 µM; Molecular Probes C34554). CD8^+ cDCs were cocultured with OT-I CD8^+ T cells for 60 h, whereas CD11b^+ cDCs were cocultured with OT-II CD4^+ T cells for 96 h, both in the presence of granulocyte-macrophage colony-stimulating factor (GM-CSF) (20 ng/mL; Peprotech 315-03). Proliferated OT-I or OT-II T cells were defined as diluted CFSE signal analyzed by flow cytometry. The numbers of T cells were counted by AccuCheck counting beads (Molecular Probes PCB100). […] Cells were washed twice with cold medium and analyzed by flow cytometry.
Figure 3 SUP3 facilitated cross-presentation of ovalbumin (OVA) antigen by CD8^+ conventional dendritic cells (cDCs) in vitro. […] Cells were washed and cocultured with carboxyfluorescein diacetate succinimidyl ester (CFSE)-labeled OT-I CD8^+ T cells for 60 h and analyzed by flow cytometry. (A) The dividing OT-I cells were measured by reduced level of CFSE-labeling. […] (B) Absolute numbers of proliferated OT-I T cells were calculated. (C) Interferon-γ from the supernatant of coculture was determined by ELISA 24 h later. […]

Regarding Pam3CSK4 [reference compound], in assay [1], the “IL-6 and TNFα production by CD8+ cDCs” value is recorded as “only low levels”. Further, in assay [2], the “enhancement of cross-presentation by CD8+ cDCs in vitro” value was “comparable”.
In the case of `CCCCCCCCCCCCCCCC(=O)N[C@@H](CSC[C@@H](COC(=O)NCCCCCCCCCCCCCC)OC(=O)NCCCCCCCCCCCCCC)C(=O)NCC(=O)N[C@@H](CCCCN)C(=O)N[C@@H](CCCCN)C(=O)N[C@@H](CCCCN)C(=O)O` [SUP3, (2S,5S,8S,14R,18R)-2,5,8-tris(4-aminobutyl)-4,7,10,13,21-pentaoxo-14-palmitamido-18-((tetradecylcarbamoyl)oxy)-20-oxa-16-thia-3,6,9,12,22-pentaazahexatriacontan-1-oic acid] (Palmitoyl-C(X1)GKKK-OH), the “IL-6 and TNFα production by CD8+ cDCs” value in assay [1] was “only low levels”. The “enhancement of cross-presentation by CD8+ cDCs in vitro” value in assay [2] is on record as “comparable”.
